Data set [1] deals with T1, ASK1 (Homo sapiens (Human), UniProt Q99683). Kind of data set: Homogeneous Time-Resolved Fluorescence (HTRF) assay for inhibitory effect against ASK1 (Example C; KinEASE STK S3 kit). It is filed as biochemical. To be noted: 25 nM ASK1, 100 μM ATP, read-out: Enzyme Activity C IC50. The text has this: (§1) The inhibitory effect of the compound of the invention on ASK1 may be evaluated by evaluating the phosphorylating activity of the enzyme on a known substrate with or without the presence of the test compound. Example B provides such an assay where myelin basic protein (Wako) is used as substrate and detection is by scintillation counting. It should be understood other substrates and detection mechanism may be used. A commercially available a kit, Cisbio's HTRF® KinEASE™ STK kit, has shown to be useful for evaluating ASK1 activity. The assay uses an anti-phosphoseric specific, Eu^3+-Cryptate labeled antibody to mark the phosphorylated product of ASK1 on a biotinylated kinase substrate, and detection is by time resolved fluorescence using XL665 labeled streptavidin. The fluorescence intensity is proportional to the amount of product formation. Example C provides the assay protocol.
Homogeneous Time-Resolved Fluorescence (HTRF) Assay for Measuring the Inhibitory Effect of Exemplified Compounds of the Invention Against ASK1
Recombinant human ASK1 is purchased from Millipore (Cat #14-606). The enzymatic assay of ASK1 is set up by using HTRF® KinEASE™ STK S3 kit, the Universal Assay for Serine/Threonine Kinases kit from CisBio.
The inhibitory properties of compounds to ASK1 may be determined using a white 384-well-plate format under the following reaction conditions: 25 nM ASK1, 1 μM CisBio STK S3-biotion peptide, 100 μM ATP, and 1%-2% DMSO in kinase assay buffer of 50 mM HEPES, pH 7.3, 10 mM NaCl, 10 mM MgCl2, 0.01% Brij35, 0.2 mM EDTA, and 1 mM DTT. Reaction product is determined quantitatively by HTRF after the addition of detection reagent SA-XL665 and STK-antibody-cryptate.
The assay reaction may be initiated as follows: 2 μl of the mixture of 3 μM CisBio STK S3-biotion peptide and 300 μM ATP with 2 μl of test compound (2 fold serial dilutions for 11 data points for each inhibitor) containing 3%-6% DMSO are added to each well of the plate, followed by the addition of 2 μL of 75 nM ASK1 to initiate the reaction (final enzyme concentration was 25 nM for ASK1). The reaction mixture may then be incubated at room temperature for 1 hour, and quenched and developed by the addition of 6 μL of 100-fold diluted STK-antibody-Cryptate and 250 nM SA-XL665 in Cisbio HTRF detection buffer (50 mM HEPES, pH7.0, 0.1% BSA, 0.8 M KF, and 20 mM EDTA). The fluorescence intensity is measured at 620 nm (Cryptate) and 665 nm (XL665) after a 1-2 hour incubation at room temperature. A ratio is calculated (665/620) for each well and is fitted to the standard IC50 curve to determine inhibition constants (IC50).
Target sequence in this assay (Q99683 649-946): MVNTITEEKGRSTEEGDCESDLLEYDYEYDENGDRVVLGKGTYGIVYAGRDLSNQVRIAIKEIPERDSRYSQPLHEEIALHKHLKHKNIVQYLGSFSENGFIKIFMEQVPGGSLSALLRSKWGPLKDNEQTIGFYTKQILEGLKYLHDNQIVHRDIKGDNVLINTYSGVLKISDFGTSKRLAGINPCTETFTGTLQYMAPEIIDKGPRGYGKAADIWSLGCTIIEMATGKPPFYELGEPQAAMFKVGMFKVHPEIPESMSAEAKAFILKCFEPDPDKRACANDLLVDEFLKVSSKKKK

In data set [2] the target is T1, ASK1. Kind of data set: Scintillation assay for inhibitory effect against ASK1 (Example B; myelin basic protein substrate, [γ-32P]ATP). The conditions noted are these: 2.5 μM ATP solution, read-out: Enzyme Activity B IC50. It is filed as biochemical.
Source text: as §1
Target sequence in this assay (Q99683 650-1374): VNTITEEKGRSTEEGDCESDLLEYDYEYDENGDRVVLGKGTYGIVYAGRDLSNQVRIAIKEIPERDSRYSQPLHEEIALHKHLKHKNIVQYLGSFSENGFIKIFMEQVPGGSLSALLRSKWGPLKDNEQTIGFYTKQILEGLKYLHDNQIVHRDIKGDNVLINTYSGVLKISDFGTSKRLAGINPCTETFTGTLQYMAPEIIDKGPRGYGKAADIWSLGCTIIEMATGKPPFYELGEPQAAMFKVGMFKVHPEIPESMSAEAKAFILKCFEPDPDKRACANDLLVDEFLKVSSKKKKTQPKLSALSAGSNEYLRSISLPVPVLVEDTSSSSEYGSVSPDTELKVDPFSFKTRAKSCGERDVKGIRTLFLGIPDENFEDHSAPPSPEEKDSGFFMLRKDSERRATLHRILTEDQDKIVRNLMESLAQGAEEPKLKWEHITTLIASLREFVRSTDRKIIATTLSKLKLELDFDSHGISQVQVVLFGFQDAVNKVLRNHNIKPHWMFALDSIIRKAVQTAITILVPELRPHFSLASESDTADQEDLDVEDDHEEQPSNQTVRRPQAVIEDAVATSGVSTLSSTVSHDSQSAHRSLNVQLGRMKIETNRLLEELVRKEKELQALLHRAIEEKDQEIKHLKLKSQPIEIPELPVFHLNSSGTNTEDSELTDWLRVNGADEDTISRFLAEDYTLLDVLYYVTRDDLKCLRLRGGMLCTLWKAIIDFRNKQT
Cloning of cDNA encoding human ASK1 was conducted by PCR using primers, 5′-[…] […]-3′ (SEQ ID NO: 1) and 5′-AAAGCGGCCGCTCAA […]-3′ (SEQ ID NO: 2), from human heart cDNA library (Becton, Dickinson and Company). The PCR product was subjected to agarose gel (1%) electrophoresis, a 2.2 kb DNA fragment containing an ASK1 gene was recovered from the gel, and then digested with restriction enzymes, NotI and SalI, and inserted into a plasmid pFASTBAC1 (Invitrogen) to prepare a plasmid pFB-ASK1. The insert was verified by sequencing. Recombinant baculovirus was prepared according to the procedure of the Bac-to-Bac baculovirus expression system (Invitrogen).
Sf-21 cells were seeded to achieve 1×10^6 cells/mL in 100 mL of Sf-900 II SFM medium (Invitrogen) which contains 10% fetal calf serum and then cultured at 27° C. for 24 hrs. To express ASK1 in cells, 0.15 mL of the recombinant baculovirus virus stock was added to cells, and the then cultured for 60 hrs. The cells were separated from the culture solution by centrifugation at 3000 rpm for 10 min and washed once with PBS. The cells were suspended in 10 mL of lysis buffer (25 mM HEPES (pH 7.5), 1% Triton X, 130 mM NaCl, 1 mM EDTA, 1 mM DTT, 25 mM (3-glycerophosphate, Protease inhibitor complete (Roche), 1 mM sodium orthovanadate) and ruptured by four times of treatment with a homogenizer (POLYTRON) at 20000 rpm for 30 seconds. Active ASK1 protein was purified from a supernatant obtained by centrifugal separation at 40000 rpm for 45 min using anti-FLAG M2 Affinity Gel (Sigma).
Scintillation Assay for Measuring the Inhibitory Effect of Exemplified Compounds of the Invention Against ASK1
The test compounds (2.5 μL) dissolved in DMSO were added to wells containing 37.5 μL of the reaction solution (25 mM HEPES (pH 7.5), 10 mM magnesium acetate, 1 mM DTT) including 30 ng of active ASK1 protein and 1 μg of myelin basic protein (Wako), and incubated at room temperature for 5 min. To start the reaction, 10 μL of ATP solution (2.5 μM ATP, 0.1 μCi [γ-^32P]ATP) was added to wells. After incubating at room temperature for 30 min, the reaction was terminated by adding 50 μL of 20% TCA solution. The reaction solution was incubated at 4° C. for 30 min and an acid-insoluble fraction was transferred onto a GF/C filter (Packard) with Cell Harvester (Packard), and washed with 250 mM phosphoric acid. After drying at 45° C. for 60 min., 40 μL of Microscint 0 (Packard) was added and the radioactivity was measured with TopCount (Packard). The concentrations (IC50 value) of the test compounds necessary for 50% inhibition of kinase activity were calculated by PRISM 3.0 (Graphpad Software).

pIC50: −log10 of the molar value.

Turning to `CCn1cc(Cl)c2cnc(NC(=O)c3ccc([C@@](C)(O)CO)cc3)cc21` [Compound 14, (R)—N-(3-chloro-1-ethyl-1H-pyrrolo[3,2-c]pyridin-6-yl)-4-(1,2-dihydroxypropan-2-yl)benzamide], the melting point lay in the range of 224.4 to 225.1 °C. Also, the pIC50 at ASK1 [1] is 7.80. The pIC50 on ASK1 [2] is 8.22.

As for `CCn1cc(Cl)c2cnc(NC(=O)c3ccc([C@](C)(O)CO)cc3)cc21` [Compound 26, (S)—N-(3-chloro-1-ethyl-1H-pyrrolo[3,2-c]pyridin-6-yl)-4-(1,2-dihydroxypropan-2-yl)benzamide], the melting point lay within 223 to 223.9 °C. Further, the pIC50 at ASK1 [1] is 7.92. Further, the negative-log IC50 (pIC50) at ASK1 [2] was 8.05.

For the compound `Cn1cc(Cl)c2cnc(NC(=O)c3ccc([C@](C)(O)CO)cc3)cc21` [Compound 29, (S)—N-(3-chloro-1-methyl-1H-pyrrolo[3,2-c]pyridin-6-yl)-4-(1,2-dihydroxypropan-2-yl)benzamide], the melting point fell in the range of 210 to 212 °C. The pIC50 at ASK1 [1] is 7.42.

As for `Cn1c(Cl)c(Cl)c2cnc(NC(=O)c3ccc([C@](C)(O)CO)cc3)cc21` [Compound 30, (S)—N-(2,3-dichloro-1-methyl-1H-pyrrolo[3,2-c]pyridin-6-yl)-4-(1,2-dihydroxypropan-2-yl)benzamide], the melting point lay in the range of 205 to 208 °C.

Consider `Cn1cc(Cl)c2cnc(NC(=O)c3ccc([C@@](C)(O)CO)cc3)cc21` [Compound 31, (R)—N-(3-chloro-1-methyl-1H-pyrrolo[3,2-c]pyridin-6-yl)-4-(1,2-dihydroxypropan-2-yl)benzamide], for which the melting point lay within 210 to 212 °C. The pIC50 at ASK1 [1] is 7.72.
